Results: paper PMC6268073, “Synthesis and Antiplasmodial Activity of Betulinic Acid and Ursolic Acid Analogues” (Molecules, 2012)
Entries after “also recorded” stand apart in the source; their conditions may differ. Where two headings read alike, the source gives them in different places.

Columns and labels:
[1] = tested on: P. falciparum chloroquine-sensitive 3D7 strain; assay: Antiplasmodial assay, microdilution in vitro, flow cytometry; format: cell-based, Plasmodium falciparum; conditions: for IC50: Plasmodium falciparum; for Antiplasmodial activity grade in words: P. falciparum 3D7
Protocol: The strains were maintained in human erythrocytes in a gas mixture containing 5% O2, 5% CO2 and 90% N2 [24]. The culture was synchronised by 10% sorbitol treatment. The antimalarial activity was measured using the microdilution technique in vitro. […] Samples were dissolved in water, dimethylsulfoxide (DMSO) or methanol and serially diluted with the culture medium. To evaluate parasitemia, Giemsa staining and flow cytometric analysis were used. The concentration of the drug required to inhibit parasite growth was determined by comparing the fluorescence incorporated into the treated and untreated cultures (control). The concentration causing 50% inhibition (IC50) was determined from the drug concentration response curve.

Plasmodium 3D7 strain = tested on: Plasmodium 3D7 strain; set-up: method as in PMID 14697777; conditions: 3D7 strain ref 7; read-out: IC50 anti-Plasmodium 3D7 strain; cited from earlier work
[2] = Cytotoxicity assay, dihydroethidium staining, flow cytometry; format: cell-based, human; conditions: human
Protocol: (§1) Human embryonic kidney (HEK293T) cells were cultured in surface area 75 cm^2 (Greiner Bio-One, Frickenhausen, Germany) vented tissue culture flasks at 37 °C in a humidified atmosphere containing 5% CO2 in Dulbecco’s modified essential medium (Gibco/Life Technologies, Grand Island, NY, USA) supplemented with 10% (v/v) foetal bovine serum, 100 U/mL penicillin and 100 µg/mL streptomycin. After 24 h, 50 µl of each drug was added with 0.5% DMSO or methanol to a single well. The cells were incubated with the test drugs for an additional 24 and 48 h and then harvested with trypsin, gently pelleted by centrifugation and re-suspended in PBS. The cells were stained with dihydroethidium solution (10 mg/mL in phosphate buffered saline), gently vortexed and incubated for 40 min at 37 °C in the dark. Ten thousand gated events were acquired for each sample (FACSCalibur BD and CellQuest software was used for analysis).

HEK293T cells = assay: as above; format: cell-based, human; conditions: for Selectivity Index (SI) 48 h: HEK293T IC50 versus P. falciparum 3D7 IC50, 48 h; for IC50: Homo sapiens, HEK-293T; for IC50 / Cytotoxicity judgement in words: HEK293T; for Cytotoxicity judgement in words: tested concentrations 0.001-100 µM
Protocol: as §1

P. berghei = tested on: P. berghei; set-up: method as in PMID 10190183; conditions: 250 mg/kg/day ref 6; cited from earlier work
[3] = tested on: P. falciparum chloroquine-sensitive Thai strain; set-up: method as in PMID 17967541; conditions: chloroquine-sensitive Thai strain ref 10; cited from earlier work
[4] = tested on: P. falciparum (3D7) isolated parasites; assay: Cytosolic calcium in isolated parasites loaded with Fluo4/AM (spectrofluorimetry); format: cell-based, Plasmodium falciparum; conditions: 2c 100 µM
Protocol: Erythrocytes (RBCs) infected by P. falciparum (3D7) at the trophozoite stage were lysed with 10 mg/mL saponin (in phosphate-buffered saline) in the presence of 20 µg/mL protease inhibitors (pepstatin A, leupeptin, antipain and chymostatin) and benzamidine (0.5 mmol/L). Erythrocyte membranes were then removed through centrifugation (8700 rpm for 10 min at 4 °C). The parasites were washed three times in buffer M (116 mM NaCl, 5.4 mM KCl, 0.8 mM MgSO4, 5.5 mM D-glucose, 50 mM MOPS, pH 7.3) with CaCl2 (2 mM). The parasites were then re-suspended in the same buffer with Fluo4-AM (5 μM) probenecid (1.8 mM), an inhibitor of organic anion transport (to prevent dye sequestration and release), […] protease inhibitors (pepstatin A, leupeptin, antipain and chymostatin) and benzamidine (0.5 mmol/L) for 50 min at 37 °C. The parasite suspension was then washed three times with buffer M. Spectrofluorimetric measurements were performed in a Shimadzu RF-5301 PC instrument at 37 °C with isolated P. falciparum (3D7) parasites (10^8 cells mL^−1) incubated with MOPS buffer in a 1 mL cuvette. Compound 2c (100 μM) and THG (10 μM) were added during time course experiments, and excitation/emission wavelengths were adjusted to 505/530 nm for Fluo4-AM. Methanol (0.05%) was used as a control. […]

[5] = chloroquine-sensitive 3D7 strain, 48 h incubation, n = 3, read-out: IC50 (µM) P. falciparum 3D7
[6] = 24 h, read-out: IC50 (µM) HEK293T 24 h
[7] = 48 h, read-out: IC50 (µM) HEK293T 48 h
[8] = chloroquine-sensitive 3D7 strain, 48 h incubation, values in nM, read-out: IC50 P. falciparum 3D7

| Structure (SMILES) | Antiplasmodial activity grade in words [1] | IC50 [1, 5] [µM] | Selectivity Index (SI) 48 h (HEK293T cells) | IC50 (HEK293T cells; [6]) [µM] | IC50 (HEK293T cells; [7]) [µM] | other results |
| --- | --- | --- | --- | --- | --- | --- |
| CCN(CC)CCCC(C)Nc1ccnc2cc(Cl)ccc12 (centres unmarked) [chloroquine, reference compound] |  |  |  |  |  | IC50 ([1]; 3D7, 48 h, read-out: IC50 P. falciparum 3D7): 0.029 µM |
| C=C(C)[C@@H]1CC[C@]2(C(=O)OC)CC[C@]3(C)[C@H](CC[C@@H]4[C@@]5(C)CC[C@H](O)C(C)(C)[C@@H]5CC[C@]43C)[C@@H]12 [methyl betulinate, reference compound] |  |  |  |  |  | IC50 (Plasmodium 3D7 strain): 7 µM |
| C=C(C)[C@@H]1CC[C@]2(C(=O)NCCCN3CCN(CCCNC(=O)OC(C)(C)C)CC3)CC[C@]3(C)C(CCC4[C@@]5(C)CC[C@H](OC(C)=O)C(C)(C)C5CC[C@]43C)C12 (some centres unmarked) [1b, N-{3-[4-(3-Aminopropyl)piperazinopropyl]terbutylcarbamate}-3-acetylbetulinamide] | good activity | 5 | 0.8 | 4 | 4 | IC50 [2]: 4 µM; melting point: 129 °C |
| CC(=O)O[C@H]1CC[C@@]2(C)C(CC[C@]3(C)C2CC=C2C4[C@@H](C)[C@H](C)CC[C@]4(C(=O)NCCCN4CCN(CCCNC(=O)OC(C)(C)C)CC4)CC[C@]23C)C1(C)C (some centres unmarked) [2b] |  | 15 |  |  |  |  |
| CC(=O)O[C@H]1CC[C@@]2(C)C(CC[C@]3(C)C2CC=C2C4[C@@H](C)[C@H](C)CC[C@]4(C(=O)O)CC[C@]23C)C1(C)C (some centres unmarked) [2a] |  | 14 |  |  |  |  |
| C=C(C)[C@@H]1CC[C@]2(C(=O)O)CC[C@]3(C)[C@H](CC[C@@H]4[C@@]5(C)CC[C@H](O)C(C)(C)[C@@H]5CC[C@]43C)[C@@H]12 [compound 1, Betulinic acid] | moderate activity | 18 |  |  |  | Efficacy in murine malarial model of P. berghei (P. berghei): ineffective; IC50 (Plasmodium 3D7 strain): 13.9 µM |
| C=C(C)[C@@H]1CC[C@]2(C(=O)NCCCN3CCN(CCCN)CC3)CC[C@]3(C)C(CCC4[C@@]5(C)CC[C@H](OC(C)=O)C(C)(C)C5CC[C@]43C)C12 (some centres unmarked) [1c, N-{3-[4-(3-aminopropyl)piperazinyl]propyl}-3-acetylbetulinamide] | excellent activity | 0.22 | 18 | 4 | 4 | IC50 [1, 8]: 0.175 to 0.22 µM; IC50 [2]: 4 µM; melting point: 120 °C |
| CC(=O)OC1CCC2(C)C(CCC3(C)C2CC=C2C4C(C)C(C)CCC4(C(=O)NCCCN4CCN(CCCN)CC4)CCC23C)C1(C)C (centres unmarked) [2c] | excellent activity | 0.175 | 23 | 4 | 4 | IC50 [3]: 0.167 µM; IC50 [1, 8]: 0.175 to 0.22 µM; IC50 ([2]; HEK293T cells, HEK293T, time not stated, read-out: IC50 cytotoxicity HEK293T): 4 µM; Cytotoxicity judgement in words (HEK293T cells): non-toxic; Effect on parasite calcium homeostasis, in words ([4]; followed by THG 10 µM): can modulate parasite calcium homeostasis; also recorded: led to an increase in intracellular ion concentrations in P. falciparum; Ca2+ concentration, Fluo4/AM fluorescence after addition of compound ([4]; isolated parasites 10^8 cells mL-1, mean ± SEM, n = 9, P = 0.0004 vs methanol 0.05%): 104.9 a.u. |
| C=C(C)[C@@H]1CC[C@]2(C(=O)O)CC[C@]3(C)[C@H](CC[C@@H]4[C@@]5(C)CC[C@H](OC(C)=O)C(C)(C)[C@@H]5CC[C@]43C)[C@@H]12 [1a, 3-O-Acetylbetulinic acid] | good activity | 4 |  | > 100 | > 100 | Cytotoxicity judgement in words (HEK293T cells): not toxic; also recorded: not cytotoxic at the tested concentrations |
| C[C@H]1[C@H](C)CC[C@]2(C(=O)O)CC[C@]3(C)C(=CC[C@@H]4[C@@]5(C)CC[C@H](O)C(C)(C)[C@@H]5CC[C@]43C)[C@H]12 [compound 2, Ursolic acid] | inactive | 36 |  |  |  |  |
